One test concerns HCT116 cells. Nature of the test: Cytotoxicity assay (ATPLite, 72 hours). It counts as cell-based. Particulars: Homo sapiens, HCT-116, ATPLite luminescence. How it is done:
HCT116 cells are seeded into black 96-well plates at 5,000 cells per well in 100 microliters (DMEM supplemented with 10% serum) and are incubated overnight. […] Plates are equilibrated to room temperature (5 min). Fifty microliters lysis buffer followed by 50 microliters substrate solution (ATPLite [2 step], Perkin-Elmer, #601941) is added to each well, and plates are incubated at room temperature 5 minutes. Luminescence is then measured (TopCount, Perkin-Elmer).

In another test the target is purified human Hsp90. Briefly: Hsp90 binding assay (fluorescence polarization, displacement of BODIPY-geldanamycin). Particulars: displacement of BODIPY-GM (10 nM) from purified human Hsp90 (30 nM), overnight at room temperature.

The structures appear in SMILES notation.

Experimental for purified human Hsp90: Plates are incubated overnight at room temperature. Parallel and perpendicular fluorescence measurements are read (LJL BioSystems Analyst AD plate reader) at excitation/emission wavelengths of 485/530 nm. Background fluorescence (buffer only) is subtracted, and fluorescence polarization (FP) values, expressed in mP units, are calculated from parallel and perpendicular fluorescence readings as follows:
Percent inhibition is calculated by normalizing the FP values to those obtained in parallel reactions containing DMSO and subtracting these normalized values from 100%. Intrinsic compound fluorescence is independently monitored, and FP data points confounded by compound fluorescence are excluded from the analysis.

With `[2H]C1([2H])Oc2cc(Br)c(Sc3nc4c(N)ncnc4n3CCC3CCN(C(=O)[C@H](C)OC(C)=O)CC3)cc2O1` [(2S)-1-[4-(2-{6-amino-8-[(6-bromo-2,2-d2-benzo[d][1,3]dioxol-5-yl)sulfanyl]-9H-purin-9-yl}ethyl)piperidin-1-yl]-1-oxopropan-2-yl acetate], the 50% inhibitory concentration (IC50) in the test with HCT116 cells is 730 nM; on purified human Hsp90, 78 nM.
As to `[2H]C1([2H])Oc2cc(Br)c(Sc3nc4c(N)ncnc4n3CCC3CCN(C(=O)[C@H](C)O)CC3)cc2O1` [(2S)-1-[4-(2-{6-amino-8-[(6-bromo-2,2-d2-benzo[d][1,3]dioxol-5-yl)sulfanyl]-9H-purin-9-yl}ethyl)piperidin-1-yl]-2-hydroxypropan-1-one], the results for the IC50 with HCT116 cells and at purified human Hsp90 were 1200 nM and 250 nM, respectively.

The record behind these values is patent US20130053406A1, “THERAPEUTIC COMPOUNDS AND USES THEREOF” (Myrexis, Inc., priority 2009, published 2013).
